Measured values as given in patent publication US10934303B2, “Aryl ethene derivative and pharmaceutical composition containing same as active ingredient” (priority 2016, dated 2021).
Where two headings read alike, the source gives them in different places.

Key:
CYP1A2 = CYP1A2 (Homo sapiens (Human), UniProt P05177); experiment: Cytochrome P450 activity inhibition, CYP1A2; type: in vitro ADME; details: 10 μM, human liver microsomes, Phenacetin substrate
From the text: (§1) 1) Cytochrome P450 (CYP450) Activity Inhibition Evaluation

CYP2C9 = CYP2C9 (Homo sapiens (Human), UniProt P11712); experiment: Cytochrome P450 activity inhibition, CYP2C9; type: in vitro ADME; details: 10 μM, human liver microsomes, Diclofenac substrate
CYP2C9, sequence (P11712 whole entry): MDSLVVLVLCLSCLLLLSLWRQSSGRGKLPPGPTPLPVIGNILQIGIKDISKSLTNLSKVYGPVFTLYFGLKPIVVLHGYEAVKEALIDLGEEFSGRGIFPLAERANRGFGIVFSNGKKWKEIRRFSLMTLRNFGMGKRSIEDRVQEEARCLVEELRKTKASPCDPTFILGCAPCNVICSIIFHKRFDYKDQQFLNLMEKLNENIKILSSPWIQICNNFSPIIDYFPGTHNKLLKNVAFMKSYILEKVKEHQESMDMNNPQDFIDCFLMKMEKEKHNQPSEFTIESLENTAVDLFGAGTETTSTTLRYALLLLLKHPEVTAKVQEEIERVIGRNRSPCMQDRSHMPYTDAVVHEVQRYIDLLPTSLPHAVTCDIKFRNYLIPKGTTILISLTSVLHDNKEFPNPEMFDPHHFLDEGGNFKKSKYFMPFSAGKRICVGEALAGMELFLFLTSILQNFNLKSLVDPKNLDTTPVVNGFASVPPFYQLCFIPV
From the text: as §1

CYP2C19 = CYP2C19 (Homo sapiens (Human), UniProt P33261); experiment: Cytochrome P450 activity inhibition, CYP2C19; type: in vitro ADME; details: 10 μM, human liver microsomes, S-mephenytoin substrate
CYP2C19, sequence (P33261 whole entry): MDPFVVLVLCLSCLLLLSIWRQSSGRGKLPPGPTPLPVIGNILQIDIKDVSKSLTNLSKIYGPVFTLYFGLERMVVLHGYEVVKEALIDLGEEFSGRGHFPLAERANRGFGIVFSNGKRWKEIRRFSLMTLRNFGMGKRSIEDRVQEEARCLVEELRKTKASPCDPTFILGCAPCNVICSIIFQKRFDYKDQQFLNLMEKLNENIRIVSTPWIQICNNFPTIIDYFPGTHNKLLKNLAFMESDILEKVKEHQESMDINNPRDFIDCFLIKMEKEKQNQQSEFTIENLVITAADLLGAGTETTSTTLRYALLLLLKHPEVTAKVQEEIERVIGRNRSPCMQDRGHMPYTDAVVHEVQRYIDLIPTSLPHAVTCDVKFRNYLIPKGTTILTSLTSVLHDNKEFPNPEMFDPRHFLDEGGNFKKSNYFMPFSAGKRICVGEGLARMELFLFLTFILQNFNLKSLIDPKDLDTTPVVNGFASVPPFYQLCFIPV
From the text: as §1

CYP2D6 = CYP2D6 (Homo sapiens (Human), UniProt P10635); experiment: Cytochrome P450 activity inhibition, CYP2D6; type: in vitro ADME; details: 10 μM, human liver microsomes, Dextromethorphan substrate
CYP2D6, sequence (P10635 whole entry): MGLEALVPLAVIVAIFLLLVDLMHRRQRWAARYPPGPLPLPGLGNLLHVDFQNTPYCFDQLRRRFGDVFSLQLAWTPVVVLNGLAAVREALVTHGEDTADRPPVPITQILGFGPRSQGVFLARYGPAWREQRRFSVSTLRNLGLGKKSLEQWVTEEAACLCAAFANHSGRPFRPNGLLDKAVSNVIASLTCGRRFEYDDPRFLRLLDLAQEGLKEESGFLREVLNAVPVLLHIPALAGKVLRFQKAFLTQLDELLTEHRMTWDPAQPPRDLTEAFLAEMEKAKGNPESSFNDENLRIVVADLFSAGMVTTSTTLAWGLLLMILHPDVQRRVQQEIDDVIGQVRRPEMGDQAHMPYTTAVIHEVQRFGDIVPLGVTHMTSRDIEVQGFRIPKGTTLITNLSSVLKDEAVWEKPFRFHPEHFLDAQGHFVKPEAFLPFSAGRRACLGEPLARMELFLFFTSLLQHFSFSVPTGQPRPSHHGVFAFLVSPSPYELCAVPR
From the text: as §1

CYP3A4 = CYP3A4 (Homo sapiens (Human), UniProt P08684); experiment: Cytochrome P450 activity inhibition, CYP3A4; type: in vitro ADME; details: 10 μM, human liver microsomes, Midazolam substrate
CYP3A4, sequence (P08684 whole entry): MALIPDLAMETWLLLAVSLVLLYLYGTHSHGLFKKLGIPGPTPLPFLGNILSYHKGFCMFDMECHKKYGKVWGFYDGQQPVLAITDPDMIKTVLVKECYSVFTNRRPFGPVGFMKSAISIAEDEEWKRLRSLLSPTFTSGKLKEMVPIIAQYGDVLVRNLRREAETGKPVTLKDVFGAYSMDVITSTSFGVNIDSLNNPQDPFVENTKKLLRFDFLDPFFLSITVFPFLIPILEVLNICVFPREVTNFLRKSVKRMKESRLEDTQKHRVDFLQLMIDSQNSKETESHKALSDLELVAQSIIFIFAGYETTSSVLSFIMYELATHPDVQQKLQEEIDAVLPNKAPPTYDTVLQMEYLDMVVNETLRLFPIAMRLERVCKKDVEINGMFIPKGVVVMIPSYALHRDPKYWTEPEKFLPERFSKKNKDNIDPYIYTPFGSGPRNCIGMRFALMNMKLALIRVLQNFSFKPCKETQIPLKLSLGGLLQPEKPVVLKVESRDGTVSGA
From the text: as §1

in vivo = type: in vivo; details: rat; for Cmax: read-out: Cmax
[1] = 1 μM, 30 minutes, 37° C., NADPH
Method: 2) Microsomal Stability Evaluation
(§2) Four liver microsomes (Human, Dog, Rat, Mouse 0.5 mg/ml) with a 0.1 M phosphate buffer solution (pH 7.4), and the arylethene derivative of the present invention were added to a concentration of 1 μM, culturing was performed at 37° C. for 5 minutes in advance, a NADPH regeneration system solution was added thereto, and culturing was performed at 37° C. for 30 minutes. Thereafter, in order to complete the reaction, an acetonitrile solution containing an internal standard material (chlorpropamide) was added thereto, centrifugation (14,000 rpm, 4° C.) was performed for 5 minutes, and a supernatant was injected into a LC-MS/MS system to analyze the substrate drug, thereby evaluating metabolism stability to the arylethene derivative of the present invention.

[2] = 1 μM, 30 minutes, 37° C., NADPH; remark: listed apart in the source
Method: 2) Microsomal Stability Evaluation
as §2

[3] = 1 μM, 30 minutes, 37° C., NADPH; remark: listed apart in the source
Method: 2) Microsomal Stability Evaluation
as §2

[4] = 1 μM, 30 minutes, 37° C., NADPH; remark: listed apart in the source
Method: 2) Microsomal Stability Evaluation
as §2

hERG channel = hERG channel (Homo sapiens (Human), UniProt Q12809); details: read-out: hERG IC50; fluorescence polarization assay
ERRγ = type: cell-based
in vitro = in vitro ADME; details: PBS pH 7.4, 25° C., 5 hours
[5] = molecular target: GST-bound ERR gamma ligand-binding domain (LBD) (Homo sapiens (Human), UniProt P62508); experiment: ERRγ binding assay (inverse agonist assay), TR-FRET; details: TR-FRET, PGC1a coactivator; read-out: Binding Assay, IC50 ERRγ
GST-bound ERR gamma ligand-binding domain (LBD), sequence (P62508 233-457): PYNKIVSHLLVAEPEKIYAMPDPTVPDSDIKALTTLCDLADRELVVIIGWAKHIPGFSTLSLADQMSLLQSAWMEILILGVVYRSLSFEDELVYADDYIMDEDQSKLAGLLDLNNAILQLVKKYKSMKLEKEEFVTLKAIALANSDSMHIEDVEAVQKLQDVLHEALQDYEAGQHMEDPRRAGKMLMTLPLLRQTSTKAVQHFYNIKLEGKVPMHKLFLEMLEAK
Method: 1) ERRγ Binding Assay (Inverse Agonist Assay)
(§3) The arylethene derivative of the present invention was sequentially added to a 384 well plate from a concentration of 10 μM to a final concentration of two-fold dilution. […] After all reagents were added, a reaction was carried out with gentle shaking at 20° C. for 1 hour, and after the reaction, a binding activity was measured by a TR-FRET method.

GST-bound ERR alpha LBD = GST-bound ERR alpha LBD (Homo sapiens (Human), UniProt P11474); details: TR-FRET, PGC1a coactivator; read-out: Binding Assay, IC50 ERRα
GST-bound ERR alpha LBD, sequence (P11474 193-421): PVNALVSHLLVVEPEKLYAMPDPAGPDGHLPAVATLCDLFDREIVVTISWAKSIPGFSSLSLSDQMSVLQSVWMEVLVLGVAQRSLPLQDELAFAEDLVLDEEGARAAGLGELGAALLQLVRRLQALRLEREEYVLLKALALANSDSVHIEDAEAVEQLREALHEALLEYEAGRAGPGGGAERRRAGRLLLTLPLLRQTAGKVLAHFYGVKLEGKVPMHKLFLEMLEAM
Method: as §3

[6] = molecular target: GST-bound ER alpha ligand-binding domain (LBD) (Homo sapiens (Human), UniProt P03372); experiment: biochemical
GST-bound ER alpha ligand-binding domain (LBD), sequence (P03372 whole entry, looked up, the tested form may be a part): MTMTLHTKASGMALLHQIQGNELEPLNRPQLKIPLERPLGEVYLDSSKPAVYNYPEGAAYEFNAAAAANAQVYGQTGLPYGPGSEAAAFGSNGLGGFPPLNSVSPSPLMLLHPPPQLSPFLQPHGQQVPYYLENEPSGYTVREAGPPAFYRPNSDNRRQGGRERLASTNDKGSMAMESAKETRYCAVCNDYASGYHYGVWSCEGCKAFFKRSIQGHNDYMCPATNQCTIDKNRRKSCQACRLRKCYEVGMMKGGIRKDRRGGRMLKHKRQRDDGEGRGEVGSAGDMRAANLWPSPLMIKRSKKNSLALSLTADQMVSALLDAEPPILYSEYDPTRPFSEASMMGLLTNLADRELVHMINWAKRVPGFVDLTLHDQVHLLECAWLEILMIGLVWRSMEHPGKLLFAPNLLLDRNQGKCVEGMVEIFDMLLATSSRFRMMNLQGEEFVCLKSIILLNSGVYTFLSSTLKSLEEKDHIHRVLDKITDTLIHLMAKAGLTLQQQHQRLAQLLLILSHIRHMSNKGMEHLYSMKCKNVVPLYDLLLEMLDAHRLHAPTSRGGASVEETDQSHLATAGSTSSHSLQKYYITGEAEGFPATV
Method: as §3

[7] = activity relative to reference compound GSK5182, 10 μM
[8] = TR-FRET, beta-estradiol 4 nM as agonist, read-out: Binding Assay, IC50 ERα

CYP1A2, sequence (P05177 whole entry): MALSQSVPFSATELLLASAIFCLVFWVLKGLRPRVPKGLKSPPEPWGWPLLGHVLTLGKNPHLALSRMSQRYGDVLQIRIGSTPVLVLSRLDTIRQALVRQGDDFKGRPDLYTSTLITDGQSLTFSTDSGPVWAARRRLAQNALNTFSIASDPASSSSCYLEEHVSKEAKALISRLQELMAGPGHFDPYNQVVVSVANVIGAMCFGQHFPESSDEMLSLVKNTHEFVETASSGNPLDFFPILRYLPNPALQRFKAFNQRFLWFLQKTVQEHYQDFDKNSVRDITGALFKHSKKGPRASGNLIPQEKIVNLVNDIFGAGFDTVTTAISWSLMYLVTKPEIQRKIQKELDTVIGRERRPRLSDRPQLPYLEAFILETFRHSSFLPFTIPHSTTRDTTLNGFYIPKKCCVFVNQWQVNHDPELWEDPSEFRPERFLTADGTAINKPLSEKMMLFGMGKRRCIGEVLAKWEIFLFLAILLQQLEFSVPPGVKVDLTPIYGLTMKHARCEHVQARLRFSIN

SMILES | CYP inhibition (% of control) 1A2 (CYP1A2) | CYP inhibition (% of control) 2C9 (CYP2C9) | CYP inhibition (% of control) 2C19 (CYP2C19) | CYP inhibition (% of control) 2D6 (CYP2D6) | CYP inhibition (% of control) 3A4 (CYP3A4) | MS(Microsomal Stability) (%) human [1] [%] | MS(Microsomal Stability) (%) dog [2] [%] | MS(Microsomal Stability) (%) rat [3] [%] | MS(Microsomal Stability) (%) mouse [4] [%] | IC50 (hERG channel) [µM] | Functional Assay at 10 μM (% of control), Cpds (ERRγ; 10 μM, 24 hours, AD293) | Functional Assay, Cpds/Ref 5182 (ERRγ; [7]) | Permeability Pampa (in vitro) | other results
OCCC/C(=C(/c1ccc(C2CCN(C3CC3)CC2)cc1)c1cccc(O)c1)c1ccccc1 [Compound 22r] | >100 % of control | >100 % of control | >100 % of control | 91.8 % of control | 82.7 % of control | 62.0 | 56.9 | 49.9 | 24.5 | 16.4 |  |  |  | AUCINF (in vivo; IV, 1 mg/kg): 0.87 μMh; AUCall (in vivo; IV, 1 mg/kg): 0.85 μMh; Vss (in vivo; IV, 1 mg/kg): 4.6 L/kg; t1/2 (in vivo; IV, 1 mg/kg): 1.8 h; AUCINF (in vivo; PO, 10 mg/kg): 5.29 μMh; AUCall (in vivo; PO, 10 mg/kg): 4.93 μMh; BA (in vivo; PO, 10 mg/kg): 58.2%; Tmax (in vivo; PO, 10 mg/kg): 1 h; t1/2 (in vivo; PO, 10 mg/kg): 2.3 h; Cmax (in vivo; PO, 10 mg/kg): 1510 nM
CN1CCN(c2ccc(/C(=C(/CCCO)c3ccccc3)c3ccc([N+](=O)[O-])cc3)cc2)CC1 [Compound 18c] | 92.2 % of control | 81.7 % of control | 80 % of control | 75.6 % of control | 64.1 % of control | 96.9 |  | 72.8 |  | 11.6 | 1.31 % of control | 0.42 | 5.73 10^−6 cm/s | 
OCCC/C(=C(\c1ccc(O)cc1)c1ccc(C2CN(C3CC3)C2)cc1)c1ccccc1 [Compound 22d] | >100 % of control | >100 % of control | >100 % of control | 82.5 % of control | 66.1 % of control | 57.6 |  | 60.2 |  | 6 |  |  | 0.38 10^−6 cm/s | 
CC(C)N1CCN(c2ccc(/C(=C(/CCCO)c3ccccc3)c3ccc(Br)cc3)cc2)CC1 [Compound 18h] | 93.5 % of control | 96.9 % of control | 86.3 % of control | 71.5 % of control | 64.5 % of control | >100 | 64.4 | 74.2 | 48.5 |  | 4.47 % of control | 1.09 | 0.37 10^−6 cm/s | IC50 [5]: 0.032 µM; IC50 (GST-bound ERR alpha LBD): > 10 µM; IC50 [6, 8]: > 10 µM
CN1CCN(c2ccc(/C(=C(/CCCO)c3ccccc3)c3ccc(O)cc3)cc2)CC1 [Compound 18d] | 88 % of control | 67.7 % of control | 81.2 % of control | 98.4 % of control | 64 % of control |  |  |  |  | > 20 | 9.65 % of control | 0.97 | 0.14 10^−6 cm/s | IC50 (GST-bound ERR alpha LBD): > 10 µM; IC50 [6, 8]: 1.7 µM
CCN1CCN(c2ccc(/C(=C(/CCCO)c3ccccc3)c3ccc(C)cc3)cc2)CC1 [Compound 18j] | >100 % of control | 87 % of control | 74 % of control | 86.6 % of control | 77.6 % of control | 67.9 | 58.0 | 62.8 | 54.9 |  | 3.28 % of control | 1.21 | 1.61 10^−6 cm/s | IC50 [5]: 0.025 µM; IC50 (GST-bound ERR alpha LBD): > 10 µM; IC50 [6, 8]: > 10 µM; AUCINF (in vivo; IV, 1 mg/kg): 0.60 μMh; AUCall (in vivo; IV, 1 mg/kg): 0.55 μMh; Cl(observed)/F (in vivo; IV, 1 mg/kg): 59 mL/min/kg; Vss (in vivo; IV, 1 mg/kg): 9.8 L/kg; t1/2 (in vivo; IV, 1 mg/kg): 3.2 h; AUCINF (in vivo; PO, 10 mg/kg): 1.61 μMh; AUCall (in vivo; PO, 10 mg/kg): 1.07 μMh; BA (in vivo; PO, 10 mg/kg): 19.6%; Tmax (in vivo; PO, 10 mg/kg): 3 h; Cmax (in vivo; PO, 10 mg/kg): 210 nM
CC(C)N1CCN(c2ccc(/C(=C(/CCCO)c3ccccc3)c3ccc([N+](=O)[O-])cc3)cc2)CC1 [Compound 18g] |  |  |  |  |  | 87.9 | 84.9 | 85.3 | 84.1 | 17.9 | 1.62 % of control | 0.84 | 4.8 10^−6 cm/s | 
Cc1ccc(/C(=C(\CCCO)c2ccccc2)c2ccc(C3CNC3)cc2)cc1 [Compound 20d] |  |  |  |  |  | 83 |  | 54 | 11.3 | 15 |  |  | 0.23 10^−6 cm/s | 
OCCC/C(=C(\c1ccc(O)cc1)c1ccc(C2=CCN(C3CC3)CC2)cc1)c1ccccc1 [Compound 22j] | 95.7 % of control | 88 % of control | 89.6 % of control | 97.1 % of control | 85 % of control | 65.2 | 54.9 | 65.5 | 34.9 | 8.8 |  |  |  | 
CN1CCC[C@H]1COc1ccc(/C(=C(/CCCO)c2ccccc2)c2ccc(O)cc2)cc1 [Compound 6h] |  |  |  |  |  |  |  |  |  | 18 |  |  |  | IC50 [6]: 1.1 µM; Functional Assay at 10 μM (% of control), Cpds (ERRγ): 5.49 % of control; Functional Assay, Cpds/Ref 5182 (ERRγ): 1.78
OCCC/C(=C(\c1ccc(O)cc1)c1ccc(N2CCN(C3CCCC3)CC2)cc1)c1ccccc1 [Compound 22n] | 99 % of control | 97.4 % of control | 83 % of control | 82.6 % of control | 88.3 % of control | 56.3 | 72.0 | 47.8 | 37.8 | 14.6 | 3.47 % of control | 1.28 |  | 
